Assays:
Assay in all cases: relative viability (nuclei count vs DMSO), 5 days (fraction); higher = more cells survive
AGI-6780 + Palbociclib = compound: O=C(Nc1cccc(C(F)(F)F)c1)Nc1cc(S(=O)(=O)NC2CC2)ccc1-c1ccsc1 [AGI-6780] + CC(=O)c1c(C)c2cnc(Nc3ccc(N4CCNCC4)cn3)nc2n(C2CCCC2)c1=O [Palbociclib] (partner 0.5 µM)
Method in brief: (§1)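 Nuclei were stained with Hoechst during a one-step fixation (final 0.05% Triton X-100, 1% formaldehyde, 1 ug/ml Hoechst) carried out 5 days after dosing, then counted on 4× images. The cells, lung cancer lines in 1536-well plates, had been dosed by pin tool the day after seeding with one drug alone or a fixed anchor-drug dose plus five library-drug doses (not always all listed) in √10 steps. Relative viability is the nuclei count in treated wells divided by that in vehicle wells, and each value is the median of duplicate plates.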

AGI-6780 + Bortezomib = compound: O=C(Nc1cccc(C(F)(F)F)c1)Nc1cc(S(=O)(=O)NC2CC2)ccc1-c1ccsc1 [AGI-6780] + CC(C)C[C@H](NC(=O)[C@H](Cc1ccccc1)NC(=O)c1cnccn1)B(O)O [Bortezomib] (partner 0.002 µM)
Method in brief: as §1

AGI-6780 + Foretinib = compound: O=C(Nc1cccc(C(F)(F)F)c1)Nc1cc(S(=O)(=O)NC2CC2)ccc1-c1ccsc1 [AGI-6780] + COc1cc2c(Oc3ccc(NC(=O)C4(C(=O)Nc5ccc(F)cc5)CC4)cc3F)ccnc2cc1OCCCN1CCOCC1 [Foretinib] (partner 0.25 µM)
Method in brief: as §1

AGI-6780 + Pictilisib = compound: O=C(Nc1cccc(C(F)(F)F)c1)Nc1cc(S(=O)(=O)NC2CC2)ccc1-c1ccsc1 [AGI-6780] + CS(=O)(=O)N1CCN(Cc2cc3nc(-c4cccc5[nH]ncc45)nc(N4CCOCC4)c3s2)CC1 [Pictilisib] (partner 1 µM)
Method in brief: as §1

Cell Line | relative viability (AGI-6780 + Palbociclib; first compound 0.08 µM) | relative viability (AGI-6780 + Palbociclib; first compound 0.253 µM) | relative viability (AGI-6780 + Palbociclib; first compound 0.8 µM) | relative viability (AGI-6780 + Palbociclib; first compound 2.53 µM) | relative viability (AGI-6780 + Palbociclib; first compound 8 µM) | relative viability (AGI-6780 + Bortezomib; first compound 0.08 µM) | relative viability (AGI-6780 + Bortezomib; first compound 0.253 µM) | relative viability (AGI-6780 + Bortezomib; first compound 0.8 µM) | relative viability (AGI-6780 + Bortezomib; first compound 2.53 µM) | relative viability (AGI-6780 + Bortezomib; first compound 8 µM) | relative viability (AGI-6780 + Foretinib; first compound 0.08 µM) | relative viability (AGI-6780 + Foretinib; first compound 0.253 µM) | relative viability (AGI-6780 + Foretinib; first compound 0.8 µM) | relative viability (AGI-6780 + Foretinib; first compound 2.53 µM) | relative viability (AGI-6780 + Foretinib; first compound 8 µM) | relative viability (AGI-6780 + Pictilisib; first compound 0.08 µM) | relative viability (AGI-6780 + Pictilisib; first compound 0.253 µM) | relative viability (AGI-6780 + Pictilisib; first compound 0.8 µM) | relative viability (AGI-6780 + Pictilisib; first compound 2.53 µM) | relative viability (AGI-6780 + Pictilisib; first compound 8 µM)
NCI-H1437 | 0.296 | 0.365 | 0.25 | 0.347 | 0.322 | 0.562 | 0.569 | 0.703 | 0.563 | 0.747 | 1.2 | 1.27 | 1.21 | 1.31 | 1.15 | 0.438 | 0.545 | 0.432 | 0.283 | 0.43
NCI-H1650 | 0.297 | 0.456 | 0.447 | 0.442 | 0.432 | 0.181 | 0.196 | 0.216 | 0.206 | 0.183 | 1.07 | 1.23 | 1.06 | 1.24 | 1.13 | 0.566 | 0.555 | 0.678 | 0.568 | 0.586
NCI-H1651 | 0.522 | 0.538 | 0.534 | 0.466 | 0.547 | 0.831 | 0.988 | 1 | 0.893 | 0.957 | 0.87 | 0.824 | 0.715 | 0.692 | 0.796 | 0.547 | 0.673 | 0.495 | 0.509 | 0.511
NCI-H1666 | 0.605 | 0.679 | 0.616 | 0.601 | 0.601 | 0.819 | 0.838 | 0.782 |  | 0.857 | 0.945 | 0.999 | 0.939 | 0.929 | 1.04 | 0.332 | 0.472 | 0.421 |  | 0.567
NCI-H1734 | 0.371 | 0.379 | 0.297 | 0.285 | 0.352 | 1.08 | 0.968 | 1.03 |  | 0.935 | 0.814 | 0.954 | 0.83 | 0.663 | 0.819 | 0.528 | 0.479 | 0.419 |  | 0.447
NCI-H1755 | 0.452 | 0.463 | 0.426 | 0.433 | 0.419 | 1.01 | 0.98 | 0.967 | 0.83 | 1.01 | 0.986 | 0.975 | 0.85 | 0.874 | 0.905 | 0.445 | 0.467 | 0.408 | 0.368 | 0.441
NCI-H1915 | 0.525 | 0.506 | 0.518 | 0.46 | 0.524 | 1.02 | 1 | 0.912 | 0.955 | 0.972 | 1.04 | 1.11 | 1.09 | 1.1 | 1.03 | 1.02 | 1.04 | 0.976 | 0.855 | 1.03
NCI-H1975 | 0.569 | 0.673 | 0.531 | 0.492 | 0.584 | 0.337 | 0.303 | 0.34 | 0.331 | 0.351 | 0.979 | 0.944 | 0.897 |  | 0.896 | 0.315 | 0.3 | 0.31 | 0.244 | 0.26
NCI-H1993 | 0.693 | 0.649 | 0.78 |  | 0.609 | 1.09 | 1.13 | 1.25 | 0.764 | 1.12 | 0.682 | 0.838 | 0.851 | 0.621 | 0.771 | 0.0371 | 0.802 | 0.854 | 0.661 | 0.82
NCI-H2009 | 0.198 | 0.158 | 0.262 | 0.194 | 0.236 | 1.03 | 1.04 | 0.969 | 1.07 | 1.12 | 1.23 | 1.23 | 1.19 | 1.24 | 1.14 | 0.731 | 0.884 | 0.911 | 0.737 | 0.867
NCI-H2023 | 0.394 | 0.372 | 0.421 | 0.357 | 0.4 | 0.994 | 1.1 | 1.09 | 0.92 | 1.06 | 0.984 | 0.823 | 0.829 | 0.777 | 0.825 | 0.284 | 0.279 | 0.271 | 0.181 | 0.229
NCI-H2085 | 0.469 | 0.5 | 0.469 | 0.535 | 0.5 | 1.04 | 1.09 | 1.02 | 1.08 | 1.13 | 0.995 | 0.882 | 1.05 | 1.02 | 0.903 | 0.468 | 0.541 | 0.48 | 0.404 | 0.491
NCI-H2087 | 0.244 | 0.265 | 0.221 | 0.25 | 0.245 | 0.824 | 0.958 | 0.77 | 0.997 | 0.879 | 1.04 | 1.24 | 1.17 | 1.17 | 1.08 | 0.787 | 0.914 | 0.879 | 0.644 | 0.773
NCI-H2126 | 0.38 | 0.357 | 0.36 | 0.391 | 0.341 | 1.17 | 1.07 | 1.11 | 1.09 | 1.09 | 1.32 | 1.09 | 1.08 | 1.08 | 1.18 | 0.484 | 0.573 | 0.496 | 0.44 | 0.493
NCI-H2228 | 0.726 | 0.961 | 0.631 | 0.667 | 0.766 | 1.11 | 1.07 | 0.811 | 0.896 | 0.886 | 1 | 0.767 | 0.598 | 0.709 | 0.853 | 0.378 | 0.532 | 0.358 | 0.133 | 0.386
NCI-H2347 | 0.451 | 0.469 | 0.413 | 0.385 | 0.481 | 0.557 | 0.947 | 0.858 | 1.23 | 1.19 | 0.607 | 0.828 | 0.831 | 0.79 | 1.57 | 0.747 | 0.648 | 0.591 | 0.553 | 0.897
